Results: patent US12448391B2, “Bicyclic derivatives for treating endoparasites” (Elanco Tiergesundheit AG, priority 2019, dated 2025)

How the values were obtained:
H. contortus larvae = test: H. contortus Larval Development Assay (Hc LDA); settings: Haemonchus contortus, read-out: EC50 (motility inhibition)
Protocol: Ruminant Gastrointestinal (H. contortus Larval Development Assay (Hc LDA)):
H.c. eggs isolated from lamb fecal matter are allowed to hatch overnight. Test compounds are diluted in DMSO and added to a 96-well plate containing appropriate media. H.c. larvae are added to each well and plates are incubated for the desired time(s). Motility is assessed using an LCD camera imaging system. Percent motility inhibition values are generated relative to the average of the DMSO-only wells.

D. immitis microfilariae = test: Dog heart worm microfilariae motility assay; type: cell-based; settings: Dirofilaria immitis, read-out: EC50 (motility inhibition)
Caenorhabditis elegans = test: C. elegans development assay (Ce DA); settings: 48 h, read-out: EC90 (motility reduction)
Protocol: Caenorhabditis elegans (Ce): C. elegans development assay (Ce DA) measures the effect of compounds on developing nematodes. Eggs of C. elegans are deposited in a 384 well plate together with food (E. coli) and the treatment formulated in DMSO. Plates are incubated at 25° C. for 48 h to allow the development of nematodes up to the L4-stage. The effect of compounds is measured as motility reduction. Efficacy is expressed in % motility reduction compared to negative controls.

Compound | EC50 (H. contortus larvae) [µg/mL] | EC50 (D. immitis microfilariae) [µg/mL] | EC90 (Caenorhabditis elegans) [µg/mL]
O=C(NN1CCOc2ccccc21)c1cnc2c(-c3cc(Cl)cc(Cl)c3F)cccc2c1N1CCOCC1 [Example 5.13, 8-(3,5-dichloro-2-fluoro-phenyl)-N-(2,3-dihydro-1,4-benzoxazin-4-yl)-4-morpholino-quinoline-3-carboxamide] | < 1 | < 0.1 | –
O=C(NN1CCOc2ccccc21)c1cnc2c(-c3cc(Cl)cnc3F)cccc2c1N1CCOCC1 [Example 5.14, 8-(5-chloro-2-fluoro-3-pyridyl)-N-(2,3-dihydro-1,4-benzoxazin-4-yl)-4-morpholino-quinoline-3-carboxamide] | < 1 | < 0.1 | –
O=C(NN1CCOc2ccccc21)c1cnc2c(-c3cc(F)cc(F)c3F)cccc2c1N1CCS(=O)(=O)CC1 [Example 5.15, N-(2,3-dihydro-1,4-benzoxazin-4-yl)-4-(1,1-dioxo-1,4-thiazinan-4-yl)-8-(2,3,5-trifluorophenyl)quinoline-3-carboxamide] | < 1 | < 0.1 | –
O=C(NN1CCOc2ccccc21)c1cnc2c(-c3cc(F)c(F)cc3F)cccc2c1N1CCOCC1 [Example 5.16, N-(2,3-dihydro-1,4-benzoxazin-4-yl)-4-morpholino-8-(2,4,5-trifluorophenyl)quinoline-3-carboxamide] | < 1 | < 0.1 | –
O=C(NN1CCOc2ccccc21)c1cnc2c(-c3cncc(Cl)n3)cccc2c1N1CCOCC1 [Example 5.17, 8-(6-chloropyrazin-2-yl)-N-(2,3-dihydro-1,4-benzoxazin-4-yl)-4-morpholino-quinoline-3-carboxamide] | < 1 | < 0.1 | –
O=C(NN1CCOc2ccccc21)c1cnc2c(-c3cncc(Cl)c3Cl)cccc2c1N1CCOCC1 [Example 5.18, 8-(4,5-dichloro-3-pyridyl)-N-(2,3-dihydro-1,4-benzoxazin-4-yl)-4-morpholino-quinoline-3-carboxamide] | < 1 | < 0.1 | –
O=C(NN1CCOc2ccccc21)c1cnc2c(-c3cc(Cl)cc(F)c3F)cccc2c1N1CCOCC1 [Example 5.19, 8-(5-chloro-2,3-difluoro-phenyl)-N-(2,3-dihydro-1,4-benzoxazin-4-yl)-4-morpholino-quinoline-3-carboxamide] | < 1 | < 0.1 | –
O=C(NN1CCOc2ccccc21)c1cnc2c(-c3cc(F)c(F)c(F)c3F)cccc2c1N1CCOCC1 [Example 5.20, N-(2,3-dihydro-1,4-benzoxazin-4-yl)-4-morpholino-8-(2,3,4,5-tetrafluorophenyl)quinoline-3-carboxamide] | < 1 | < 0.1 | –
O=C(NN1CCOc2ccccc21)c1cnc2c(-c3cncc(F)c3Cl)cccc2c1N1CCOCC1 [Example 5.21, 8-(4-chloro-5-fluoro-3-pyridyl)-N-(2,3-dihydro-1,4-benzoxazin-4-yl)-4-morpholino-quinoline-3-carboxamide] | < 1 | < 0.1 | –
O=C(NN1CCOc2ccccc21)c1cnc2c(-c3cc(Cl)cc(C(F)(F)F)n3)cccc2c1N1CCOCC1 [Example 5.22, 8-[4-chloro-6-(trifluoromethyl)-2-pyridyl]-N-(2,3-dihydro-1,4-benzoxazin-4-yl)-4-morpholino-quinoline-3-carboxamide] | < 1 | < 0.1 | –
O=C(NN1CCOc2ccccc21)c1cnc2c(-c3cc(Cl)c(F)c(Cl)c3F)cccc2c1N1CCOCC1 [Example 5.23, 8-(3,5-dichloro-2,4-difluoro-phenyl)-N-(2,3-dihydro-1,4-benzoxazin-4-yl)-4-morpholino-quinoline-3-carboxamide] | < 1 | < 0.1 | < 1
O=C(NN1CCc2ccccc21)c1cnc2c(-c3cc(F)cc(F)c3F)cccc2c1N1CCOCC1 [Example 5.24, N-indolin-1-yl-4-morpholino-8-(2,3,5-trifluorophenyl)quinoline-3-carboxamide] | < 1 | < 0.1 | –
N#Cc1ccc2c(N3CCOCC3)c(C(=O)NN3CCOc4ccccc43)cnc2c1-c1cc(Cl)cc(Cl)c1 [Example 5.35, 7-cyano-8-(3,5-dichlorophenyl)-N-(2,3-dihydro-1,4-benzoxazin-4-yl)-4-morpholino-quinoline-3-carboxamide] | – | – | < 1
O=C(NN1CCOc2ccccc21)c1cnc2c(-c3cc(F)cc(F)c3F)cccc2c1C1CC1 [Example 5.36, 4-cyclopropyl-N-(2,3-dihydro-1,4-benzoxazin-4-yl)-8-(2,3,5-trifluorophenyl)quinoline-3-carboxamide] | – | – | < 1
O=C(NN1CCOc2ccccc21)c1cnc2c(-c3cc(F)c(F)c(F)c3)c(F)ccc2c1N1CCOCC1 [Example 5.41, N-(2,3-dihydro-1,4-benzoxazin-4-yl)-7-fluoro-4-morpholino-8-(3,4,5-trifluorophenyl)quinoline-3-carboxamide] | – | – | < 1
O=C(NN1CCOc2ccccc21)c1cnc2c(-c3cc(F)cc(F)c3F)cccc2c1C1CCOCC1 [Example 5.45, N-(2,3-dihydro-1,4-benzoxazin-4-yl)-4-tetrahydropyran-4-yl-8-(2,3,5-trifluorophenyl)quinoline-3-carboxamide] | – | – | < 1

Compound | EC50 (H. contortus larvae) [µg/mL] | EC50 (D. immitis microfilariae) [µg/mL] | EC90 (Caenorhabditis elegans) [µg/mL]
O=C(NN1CCOc2ccccc21)c1cnc2c(-c3cc(Cl)cc(Cl)c3F)c(F)ccc2c1N1CCOCC1 [Example 5.47, 8-(3,5-dichloro-2-fluoro-phenyl)-N-(2,3-dihydro-1,4-benzoxazin-4-yl)-7-fluoro-4-morpholino-quinoline-3-carboxamide] | – | – | < 1
O=C(NN1CCOc2ccccc21)c1cnc2c(-c3cc(Cl)c(F)c(Cl)c3F)c(F)ccc2c1N1CCOCC1 [Example 5.48, 8-(3,5-dichloro-2,4-difluoro-phenyl)-N-(2,3-dihydro-1,4-benzoxazin-4-yl)-7-fluoro-4-morpholino-quinoline-3-carboxamide] | – | – | < 1
O=C(NN1CCOc2ccccc21)c1cnc2c(-c3cc(F)nc(F)c3F)cccc2c1N1CCOCC1 [Example 5.49, N-(2,3-dihydro-1,4-benzoxazin-4-yl)-4-morpholino-8-(2,3,6-trifluoro-4-pyridyl)quinoline-3-carboxamide] | – | – | < 1
O=C(NN1CCc2ccccc21)c1cnc2c(-c3cc(Cl)c(F)c(Cl)c3F)c(F)ccc2c1N1CCOCC1 [Example 5.54, 8-(3,5-dichloro-2,4-difluoro-phenyl)-7-fluoro-N-indolin-1-yl-4-morpholino-quinoline-3-carboxamide] | – | – | < 1
COC(C)c1c(C(=O)NN2CCOc3ccccc32)cnc2c(-c3cc(F)cc(F)c3F)cccc12 (stereo not shown) [Example 5.55, N-(2,3-dihydro-1,4-benzoxazin-4-yl)-4-(1-methoxyethyl)-8-(2,3,5-trifluorophenyl)quinoline-3-carboxamide] | – | – | < 1
CN(C)c1c(C(=O)NN2CCOc3ccccc32)cnc2c(-c3cc(Cl)c(F)c(Cl)c3F)c(F)ccc12 [Example 5.56, 8-(3,5-dichloro-2,4-difluoro-phenyl)-N-(2,3-dihydro-1,4-benzoxazin-4-yl)-4-(dimethylamino)-7-fluoro-quinoline-3-carboxamide] | – | – | < 1
O=C(NN1CCOc2ccccc21)c1cnc2c(-c3c(F)c(F)cc(F)c3F)cccc2c1N1CCOCC1 [Example 5.57, N-(2,3-dihydro-1,4-benzoxazin-4-yl)-4-morpholino-8-(2,3,5,6-tetrafluorophenyl)quinoline-3-carboxamide] | – | – | < 1
O=C(NN1CCOc2ccccc21)c1cnc2c(-c3cc(Cl)c(F)c(Cl)c3F)c(F)ccc2c1C1CC1 [Example 5.58, 4-cyclopropyl-8-(3,5-dichloro-2,4-difluoro-phenyl)-N-(2,3-dihydro-1,4-benzoxazin-4-yl)-7-fluoro-quinoline-3-carboxamide] | – | – | < 1
O=C(NN1CCOc2ccccc21)c1cnc2c(-c3cc(C(F)(F)F)cc(C(F)(F)F)c3)c(F)ccc2c1N1CCOCC1 [Example 5.59, 8-[3,5-bis(trifluoromethyl)phenyl]-N-(2,3-dihydro-1,4-benzoxazin-4-yl)-7-fluoro-4-morpholino-quinoline-3-carboxamide] | – | – | < 1
O=C(NN1CCOc2ccccc21)c1cnc2c(-c3cc(Cl)cc(F)c3F)c(F)ccc2c1N1CCOCC1 [Example 5.60, 8-(5-chloro-2,3-difluoro-phenyl)-N-(2,3-dihydro-1,4-benzoxazin-4-yl)-7-fluoro-4-morpholino-quinoline-3-carboxamide] | – | – | < 1
O=C(NN1CCOc2ccccc21)c1cnc2c(-c3cc(Cl)cc(C(F)(F)F)c3)c(F)ccc2c1N1CCOCC1 [Example 5.61, 8-[3-chloro-5-(trifluoromethyl)phenyl]-N-(2,3-dihydro-1,4-benzoxazin-4-yl)-7-fluoro-4-morpholino-quinoline-3-carboxamide] | – | – | < 1
CON(C)c1c(C(=O)NN2CCOc3ccccc32)cnc2c(-c3cc(Cl)c(F)c(Cl)c3F)c(F)ccc12 [Example 5.62, 8-(3,5-dichloro-2,4-difluoro-phenyl)-N-(2,3-dihydro-1,4-benzoxazin-4-yl)-7-fluoro-4-[methoxy(methyl)amino]quinoline-3-carboxamide] | – | – | < 1
O=C(NN1CCOc2ccccc21)c1cnc2c(-c3ccc(C(F)(F)F)cc3)cccc2c1N1CCOCC1 [Example 5.63, N-(2,3-dihydro-1,4-benzoxazin-4-yl)-4-morpholino-8-[4-(trifluoromethyl)phenyl]quinoline-3-carboxamide] | – | – | < 1
O=C(NN1CCOc2ccccc21)c1cnc2c(-c3cc(Cl)cc(Cl)c3)ncnc2c1N1CCOCC1 [Example 6.1, 4-(3,5-dichlorophenyl)-N-(2,3-dihydro-1,4-benzoxazin-4-yl)-8-morpholino-pyrido[3,2-d]pyrimidine-7-carboxamide] | < 1 | < 0.1 | –
O=C(NN1CCOc2ccccc21)c1cnc2c(-c3cc(Cl)cc(Cl)c3)cncc2c1N1CCOCC1 [Example 7.1, 8-(3,5-dichlorophenyl)-N-(2,3-dihydro-1,4-benzoxazin-4-yl)-4-morpholino-1,6-naphthyridine-3-carboxamide] | < 1 | < 0.1 | –
